In experiment [1] the target is T1, Type-1 angiotensin II receptor (Homo sapiens, UniProt P30556).
T1 sequence (P30556 whole entry): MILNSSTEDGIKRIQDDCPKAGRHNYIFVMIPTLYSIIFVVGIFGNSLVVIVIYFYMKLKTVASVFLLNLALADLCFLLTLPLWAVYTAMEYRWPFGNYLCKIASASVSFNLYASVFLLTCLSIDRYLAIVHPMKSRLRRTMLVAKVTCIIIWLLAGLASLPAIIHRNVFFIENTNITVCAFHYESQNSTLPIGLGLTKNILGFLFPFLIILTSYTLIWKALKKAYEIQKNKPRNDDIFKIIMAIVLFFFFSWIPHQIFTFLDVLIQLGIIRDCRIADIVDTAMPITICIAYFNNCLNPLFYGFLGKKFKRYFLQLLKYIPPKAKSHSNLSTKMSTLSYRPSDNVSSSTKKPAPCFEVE
The experiment is described as follows: antagonism of angiotensin II type 1 receptor – cell-based, uHTS hits, selectivity assay for APJ receptor antagonist project, dose response (AID 463214).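 Further: antagonist potency against angiotensin II stimulated AT1 response.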 In kind it is functional.

Another experiment has as its system BJ. Briefly: BJ-TERT fibroblast viability loss – cell-based, RAS-independent, luminescence, dose response (AID 1933). In kind it is functional. As to conditions: Homo sapiens.
The subject of another experiment is HeLa. Briefly: ATP-based viability loss in HeLa cells – cell-based, CellTiter-Glo luminescence, cherry-pick samples, cytotoxicity control for MITF activator project, dose response (AID 540259). In kind it is functional. To be noted: Homo sapiens. In general terms: Cellular ATP, detected with luciferase, serves as a proxy for viable cell number.
A short description of experiment [2]: blockers of HIV-1 envelope-mediated cell-cell fusion – cherry-pick, dose response (AID 652057). In kind it is functional, cell-based.
The next experiment concerns INS1. The experiment is described as follows: INS-1E survival protection against cytokine death – cell-based, luminescence, retest, dose response (AID 449756).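 Further: cell death triggered by IL-1 beta plus TNF-alpha plus IFN-gamma mixture; protective hits raise ATP signal compared with cytokine alone wells.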 As to conditions: Rattus norvegicus. In kind it is functional.
For experiment [3], the target named is Delta-type opioid receptor (Homo sapiens, UniProt P41143). Briefly: Counterscreen for agonists of heterodimerization of the mu 1 (OPRM1) and delta 1 (OPRD1) opioid receptors: Luminescence-based cell-based high throughput dose response assay to identify agonists of OPRD1 homodimerization. [Related pubchem assays (depositor defined):AID504326, AID504355, AID504692, AID504904, AID504905]. In kind it is functional. A general note: Counterscreens check selectivity or assay interference.
Delta-type opioid receptor, sequence (P41143 whole entry): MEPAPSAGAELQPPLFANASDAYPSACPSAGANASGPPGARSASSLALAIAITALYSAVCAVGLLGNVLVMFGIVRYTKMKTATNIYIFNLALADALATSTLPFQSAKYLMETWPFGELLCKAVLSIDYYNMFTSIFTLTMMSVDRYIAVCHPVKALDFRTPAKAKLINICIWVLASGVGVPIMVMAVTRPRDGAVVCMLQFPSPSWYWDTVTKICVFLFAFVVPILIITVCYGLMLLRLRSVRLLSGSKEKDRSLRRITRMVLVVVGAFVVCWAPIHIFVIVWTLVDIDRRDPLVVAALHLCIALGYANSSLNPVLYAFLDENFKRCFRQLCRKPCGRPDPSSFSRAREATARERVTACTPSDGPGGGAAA

The next experiment deals with T2, Insulin-degrading enzyme (Homo sapiens, UniProt P14735).
T2 sequence (P14735 whole entry): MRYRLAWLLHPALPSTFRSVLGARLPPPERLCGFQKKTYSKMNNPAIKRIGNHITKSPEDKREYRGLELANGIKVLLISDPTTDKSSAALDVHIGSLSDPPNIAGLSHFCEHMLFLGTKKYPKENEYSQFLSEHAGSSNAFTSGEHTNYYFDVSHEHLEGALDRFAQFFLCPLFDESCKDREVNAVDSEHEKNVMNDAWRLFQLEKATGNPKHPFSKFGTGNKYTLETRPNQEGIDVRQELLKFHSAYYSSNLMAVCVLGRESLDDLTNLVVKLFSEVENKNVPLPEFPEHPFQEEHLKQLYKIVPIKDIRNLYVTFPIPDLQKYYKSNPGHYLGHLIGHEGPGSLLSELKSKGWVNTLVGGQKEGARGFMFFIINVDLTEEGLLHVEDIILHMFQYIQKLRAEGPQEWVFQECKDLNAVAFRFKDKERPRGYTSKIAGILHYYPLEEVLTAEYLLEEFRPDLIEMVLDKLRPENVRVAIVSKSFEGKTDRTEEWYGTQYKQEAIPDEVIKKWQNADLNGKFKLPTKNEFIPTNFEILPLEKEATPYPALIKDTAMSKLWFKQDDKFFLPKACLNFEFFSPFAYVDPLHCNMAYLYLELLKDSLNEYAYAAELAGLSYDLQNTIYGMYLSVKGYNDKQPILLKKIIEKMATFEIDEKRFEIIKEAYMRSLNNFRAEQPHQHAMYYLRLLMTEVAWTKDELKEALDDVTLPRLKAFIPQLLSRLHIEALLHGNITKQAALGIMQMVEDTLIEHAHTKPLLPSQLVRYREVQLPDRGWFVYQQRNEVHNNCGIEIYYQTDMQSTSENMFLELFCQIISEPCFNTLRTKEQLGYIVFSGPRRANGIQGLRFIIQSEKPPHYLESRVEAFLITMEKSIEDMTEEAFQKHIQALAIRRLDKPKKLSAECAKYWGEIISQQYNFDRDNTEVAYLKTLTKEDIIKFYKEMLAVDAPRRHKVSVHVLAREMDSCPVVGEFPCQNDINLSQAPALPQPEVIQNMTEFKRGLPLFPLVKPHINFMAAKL
Briefly: cellular IDE activation of Abeta substrate cleavage – fluorescence polarization, HEK cells, dose response (AID 588439). In kind it is functional, cell-based. On the technique in general: In fluorescence polarisation assays a small probe gives low polarisation when free and higher when bound to something large.

In experiment [4] the test system is HEK293. Briefly: optical interference in Abeta FP readout, dose response, artefact control for IDE activator project, biochemical, fluorescence polarization (AID 588442). In kind it is functional, cell-based. To be noted: Homo sapiens.
Another experiment is described as follows: cells. In kind it is functional.
In experiment [5] the test system is HEK293. Briefly: membrane integrity loss in HEK cells – cell-based, fluorescence, cytotoxicity control for IDE activator project, dose response (AID 588440).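 Further: cytotoxicity by LDH release measuring loss of membrane integrity.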 As to conditions: Homo sapiens. In kind it is functional.

Each structure is given as a SMILES string. Active and inactive are the calls of the source. A value given as a limit tells only on which side of the number the result lay.

Take `O=[N+]([O-])c1c(NCCO)cc(Sc2nc3ccccc3s2)c2nonc12`: the IC50 – broadly, the point on the concentration scale where inhibition reaches its midpoint – in [1] was 1.9 µM (active).
For `CC(=O)NC(c1ccc2ccccc2c1)c1ccc2cccnc2c1O` (stereo not given), in the experiment on BJ, the EC50 (usually the concentration needed to bring the measured effect to its halfway point) was 0.687 µM (active).
As to `COc1ccc2c(c1)CCC(/C=N/c1ccc3c(c1)OCO3)=C2O`, the half-maximal activity concentration (AC50) (in general, the concentration at which the activity in the assay is half-maximal) with HeLa is 48.4 µM (active).
Take `CCc1ccc(Nc2n[n+](-c3ccccc3)c(-c3c(Cl)cccc3Cl)s2)cc1`: the AC50 is 15.5 µM (active) in experiment [2] and 3.65 µM (active) in the experiment with INS1. For the same compound, in experiment [3], the EC50 was 14.2 µM (inactive).
With `CCOC(=O)C1=C(c2ccccc2)N=C(N)NC1c1ccc(OCc2ccc(Cl)cc2)c(OC)c1` (stereo not given), the EC50 at Insulin-degrading enzyme was 42.5 µM (inactive); in the experiment with HEK293 [4], > 55.9 µM (inactive). The IC50 was 9.22 µM (active) in the experiment “cells” and 13 µM (inactive) in the experiment with HEK293 [5].

(Values after ChEMBL document CHEMBL1201862, “PubChem BioAssay data set” (2004).)
